From US20220401390A1, “TREATMENTS OF DIABETIC MACULAR EDEMA AND IMPAIRED VISUAL ACUITY” (KALVISTA PHARMACEUTICALS LIMITED, priority 2019, published 2022)
“Also recorded” adds a separate entry of the source.

Assays:
[1] = test system: subjects with center involved diabetic macular edema; test: Study 1: safety and tolerability of single ascending intravitreal doses; assay type: in vivo, human
Text: Study—an Open Label, Single Ascending Dose Study to Investigate the Safety and Tolerability of the Compound of Formula A Administered by Intravitreal Injection in Subjects with Center Involved Diabetic Macular Edema and Reduced Vision
The primary objective of the trial was to evaluate the local and systemic safety and tolerability of single ascending doses administered via intravitreal injection of the compound of Formula A in adult male and female subjects with central involved diabetic macular edema.
(§1) Following the signing of informed consent, subjects attended the clinic where screening assessments were recorded (Clinic Visit 1). When deemed eligible, subjects attended the clinic where baseline measurements were recorded (recorded as Day 0, Clinic Visit 2). Following confirmation of eligibility and the taking of baseline ophthalmic measurements, a single intravitreal injection of the compound of Formula A, was administered to the study eye as per Diabetic Retinopathy Clinical Research Network (DRCR.net) protocol.
(§2) Each subject returned on Day 1, 7, 14, 28 and 56 for safety and ophthalmic assessment. Pharmacokinetic assessment was also taken. In addition, the subject was contacted by the Study Site on Day 3 (+1-1 day) by telephone to inquire about the subject's visual wellbeing and to ask about any adverse events.
Once the highest safe and tolerated (or practical) dose had been established, the study proceeded to Part 2 in which 5 additional subjects were treated with the established highest safe and tolerated (or practical) dose according to the same protocol with the same procedures performed as described for subjects enrolled into Part 1.
(§3) Single 100 μL intravitreal injection of: • 1 μg-10 μg/mL of the compound of Formula A • 3 μg-30 μg/mL of the compound of Formula A • […] of the compound of Formula A
(§4) • Best Corrected Visual Acuity as measured by ETDRS EVA • Intraocular pressure • Color vision • Multifocal Electroretinogram (mfERG) • Humphrey Visual Field 24-2 (HVF 24-2) • Treatment-Emergent Adverse Events (TEAEs) • Changes on ophthalmic examination • Clinical laboratory test results • Vital signs • ECG findings

[2] = test system: subjects with center involved diabetic macular edema; test: Study 1: pharmacodynamic effect (visual acuity, retinal thickness); assay type: in vivo, human; conditions: for Mean improvement in visual acuity compared with baseline: single injection
Description: The secondary objectives were: • To evaluate the plasma profile of the compound of Formula A following intravitreal injection in adult male and female subjects with central involved diabetic macular edema. • To evaluate the pharmacodynamic effect of intravitreal injection of the compound of Formula A in adult male and female subjects with central involved diabetic macular edema.
as §1, §2, §3, §4

[3] = of the 14 subjects, single intravitreal injection, all dose groups
[4] = whole study population, no control group

**Q.** Which results are given for CCOc1ccc(C[C@@H](NC(=O)c2ccccc2)C(=O)N[C@@H](Cc2ccccc2)C(=O)NCc2ccc(CN)cc2)cc1 [compound of Formula A, N—[(R)-1-[(S)-1-(4-Aminomethyl-benzylcarbamoyl)-2-phenyl-ethylcarbamoyl]-2-(4-ethoxy-phenyl)-ethyl]-benzamide]?
**A.** Adverse events leading to withdrawal from the study ([1]; 14 subjects, all dose groups): nor did any event lead to withdrawal from the study; Deaths or other serious adverse events ([1]; 14 subjects, all dose groups): no deaths or other serious adverse events; Severe events ([1]; 14 subjects, all dose groups): 1 patient; Study drug-related events ([1]; 14 subjects, all dose groups): 2 patients; Subjects who reported at least one adverse event (%) [1, 3]: 71%; Subjects who reported at least one adverse event (number) [1, 3]: 10 subjects; Adverse systemic effect ([1]; review of adverse events, laboratory results, ECG and physical examinations): no evidence of any adverse effect associated with systemic exposure; Tolerability of intravitreal injection ([1]; single intravitreal injection, 1, 3 or 10 μg): well tolerated; Mean improvement in visual acuity compared with baseline ([2]; Day 7, average across all dose groups): 0.7 letters; Mean improvement in visual acuity compared with baseline ([2]; Day 14, average across all dose groups): 1.0 letters; Mean improvement in visual acuity compared with baseline ([2]; Day 28, average across all dose groups): 1.9 letters; Mean improvement in visual acuity compared with baseline ([2]; Day 56, average across all dose groups): 2.8 letters; Mean improvement in visual acuity ([2]; Day 84, 1 μg dose): 3.3 letters; Mean improvement in visual acuity ([2]; Day 84, 3 μg dose): 2.0 letters; Mean improvement in visual acuity compared with baseline ([2]; Day 84, average across all dose groups): 4.1 letters; Mean retinal thickness post-injection (in words) [2, 4]: trends of improvement; also recorded: reduction; Mean visual acuity post-injection (in words) [2, 4]: trends of improvement; also recorded: small improvement
